Laboratory results: US4476128A, “2-Substituted thiazolyl-piperazine compounds, process for preparation thereof and utilizations thereof _” (Mitsuitoatsu Chemicals, Inc., priority 1980, dated 1984)
Where a name gives a salt, the structure may show the parent alone.

Assays:
Sarcoma 180 [1] = experiment: Test of Antitumor Effect to Sarcoma 180 by Oral Administration; type: in vivo, ICR female mice; conditions: for D: average diameter (mm) of tumor, 2 weeks / D: average diameter (mm) of tumor, 4 weeks / D: average diameter (mm) of tumor, 6 weeks / D: average diameter (mm) of tumor, 8 weeks / D: average diameter (mm) of tumor, 10 weeks: 100 mg/Kg oral once a day, 10 days; for N: number of living mice, 0 weeks / N: number of living mice, 2 weeks / N: number of living mice, 4 weeks / N: number of living mice, 6 weeks / N: number of living mice, 8 weeks / N: number of living mice, 10 weeks: group of 6
Experimental: To the control group, a physiological saline was similarly administered. The dose of the compound was 100 mg per Kg of the body weight. The diameter D (mm) of the tumor was measured, and the average value and the number N of the living mice were determined to obtain results shown in Table 4.

Sarcoma 180 [2] = experiment: Test of Antitumor Effect to Sarcoma 180 by Subcutaneous Administration; type: in vivo, ICR female mice; conditions: 20 mg/Kg subcutaneous; for N: number of living mice, 0 weeks / N: number of living mice, 2 weeks / N: number of living mice, 4 weeks / N: number of living mice, 6 weeks / N: number of living mice, 8 weeks / N: number of living mice, 10 weeks: group of 6
Experimental: To the control group, a physiological saline was similarly administered. […] The diameter D (mm) of the tumor was measured, and the average value and the number N of the living mice were determined to obtain results shown in Table 4.

[3] = system: delayed hypersensitivity induced by picryl chloride; experiment: Test of Reinforcement of Delayed Hypersensitivity (picryl chloride, mouse ear thickness); type: in vivo, ICR male mice; conditions: 50 mg/Kg oral, simultaneously with sensitization; 24 hours after challenge; * P<0.05, ** P<0.01
Excerpt: Various test systems using animals have been proposed for determining the immunopotentiative action. Results of the test of reinforcement of the delayed hypersensitivity, which is a typical test among these tests, will now be described.
This system was used for the test of reinforcement of the delayed hypersensitivity.
One group of eight ICR male mice, each having a body weight of about 30 g, was used for the test.
Sensitization was effected by coating a 7% solution of picryl chloride in a 4/1 mixture of olive oil and acetone on the shaved abdomen of the mouse.
Simultaneously with sensitization, a solution or suspension of the compound of the present invention in a 0.2% solution of carboxymethyl cellulose in a physiological saline was orally administered to the mouse at a dose of 50 mg per Kg of the body weight. To the control group, a 0.2% carboxymethyl cellulose solution in a physiological saline was similarly administered.
The delayed hypersensitivity was challenged 7 days after sensitization by gripping the ear of the mouse by a forceps wrapped with a felt impregnated with a 1% solution of picryl chloride in olive oil and coating the ear with the solution. The thickness of the ear was measured before challenging and 24 hours after challenging and the ratio of increase of the thickness (average value of both the ears in eight mice±standard deviation) was obtained as shown in Table 1.
For comparison, the test was similarly carried out by using Levamisole hydrochloride, and the obtained results are shown in Table 1. F.t tests were carried out. The group in which the test result was significant at a level of P<0.05 was marked by *, and the group in which the test result was significant at a level of P<0.01 was marked by **.

EL-4 leukemic cells = experiment: In-Vitro Test of Inhibition of Growth of Cancer Cell by Macrophage (3H-thymidine take-in); type: cell-based, C57 BL/6J mouse (EL-4 cells); ddY female mice (macrophages); conditions: 8 mg/Kg intraperitoneal; for Take-in Ratio (average value, %): macrophages collected after 4 days, 3H-thymidine incorporated into EL-4 cells; for inhibition of take-in of 3H-thymidine by EL-4 cells / macrophage activation (in words): hydrochloride
Experimental: The results of the test of the action of the effective ingredient of the present invention on the macrophage will now be described with reference to the following Test 3. More specifically, the separated macrophage and EL-4 leukemic cell were mixed and cultured, and ^3 H-thymidine was added to a culture medium and the quantity of ^3 H-thymidine incorporated into the EL-4 cell was determined to examine the activity of the macrophage. When the macrophage is activated by administration of the effective ingredient of the present invention, inhibition of the growth of EL-4 cell, that is, phagocytosis of the cancer cell by the macrophage, is observed. Accordingly, if the take-in amount of ^3 H-thymidine is measured and this amount is reduced, it is confirmed that the macrophage has been activated. Test Procedures: […] The dose was 8 mg per Kg of the body weight. To the control group, a physiological saline was similarly administered. After passage of 4 days, exuded abdominal cells were collected and deposited on a plastic Petri dish to collect macrophages. […] Then, 0.1 μCi of ^3 H-thymidine was added and culturing was further conducted for 16 hours. Cells were collected on a filter paper from the culture medium and the amount of ^3 H-thymidine incorporated in was determined by a liquid scintillation counter.

[4] = system: adjuvant arthritis caused by Mycobacterium tuberculosis adjuvant; experiment: Adjuvant Arthritis Test; type: in vivo, SD male rats; conditions: 5 mg/Kg subcutaneous, 9 times, left hind leg, * P<0.05, ** P<0.01
Experimental: The adjuvant arthritis in rats caused by injection of a Mycobacterium tuberculosis adjuvant is often utilized for a model test of chronic rheumatoid arthritis in men.
The mechanism of manifestation of this disease has not completely been elucidated, but it is known that the cellular immunity takes an important role. The immunopotentiative action of the compound of the present invention was tested according to this known adjuvant arthritis test.
A group of ten 9-weeks-old SD male rats were used for the test. In 0.1 ml of fluid paraffin, 0.4 mg of dry dead cells of Mycobacterium tuberculosis were suspended, and the suspension was injected under the heel skin of the right hind leg. The compound of the present invention was subcutaneously administered 9 times as a whole before and after injection of the adjuvant. The test compound was dissolved in a physiological saline and administered at a dose of 5 mg per Kg of the body weight. The swelling volume of the left hind leg as measured during the period of from the day of injection to the day of completion of the test, and the swelling ratio was calculated. For comparison, the test was similarly conducted by using Levamisole hydrochloride. F.t tests were carried out on the obtained test results. The group in which the test result was significant at a level of P<0.05 was marked by *, and the group in which the test result was significant at a level of P<0.01 was marked by **.

[5] = Test of Acute Toxicity by Oral Administration; type: in vivo, ddY male mice; conditions: mice, after 7 days
Experimental: A solution or suspension of the compound in a physiological saline was orally administered to one group of three ddY male mice, and after 7 days, the estimated LD50 value was determined.

Compound: CCN(CC)C(=O)N1CCN(c2nc(-c3ccccc3)cs2)CC1 [drawing 14]
- D: average diameter (mm) of tumor, 2 weeks (Sarcoma 180 [1]): 5.6 mm
- D: average diameter (mm) of tumor, 4 weeks (Sarcoma 180 [1]): 3.5 mm
- D: average diameter (mm) of tumor, 6 weeks (Sarcoma 180 [1]): 4.6 mm
- D: average diameter (mm) of tumor, 8 weeks (Sarcoma 180 [1]): 0 mm
- D: average diameter (mm) of tumor, 10 weeks (Sarcoma 180 [1]): 0 mm
- N: number of living mice, 0 weeks (Sarcoma 180 [1]; 100 mg/Kg oral): 6
- N: number of living mice, 2 weeks (Sarcoma 180 [1]; 100 mg/Kg oral): 6
- N: number of living mice, 4 weeks (Sarcoma 180 [1]; 100 mg/Kg oral): 6
- N: number of living mice, 6 weeks (Sarcoma 180 [1]; 100 mg/Kg oral): 6
- N: number of living mice, 8 weeks (Sarcoma 180 [1]; 100 mg/Kg oral): 6
- N: number of living mice, 10 weeks (Sarcoma 180 [1]; 100 mg/Kg oral): 6

Compound: CCN(CC)C(=O)N1CCN(c2nccs2)CC1 [drawing 17]
- N: number of living mice, 0 weeks (Sarcoma 180 [2]): 6
- D: average diameter (mm) of tumor, 2 weeks (Sarcoma 180 [2]): 4.9 mm
- N: number of living mice, 2 weeks (Sarcoma 180 [2]): 6
- D: average diameter (mm) of tumor, 4 weeks (Sarcoma 180 [2]): 6.7 mm
- N: number of living mice, 4 weeks (Sarcoma 180 [2]): 6
- D: average diameter (mm) of tumor, 6 weeks (Sarcoma 180 [2]): 9.6 mm
- N: number of living mice, 6 weeks (Sarcoma 180 [2]): 6
- D: average diameter (mm) of tumor, 8 weeks (Sarcoma 180 [2]): 5.6 mm
- N: number of living mice, 8 weeks (Sarcoma 180 [2]): 6
- D: average diameter (mm) of tumor, 10 weeks (Sarcoma 180 [2]): 0 mm
- N: number of living mice, 10 weeks (Sarcoma 180 [2]): 6

Compound: CCN(CC)C(=O)N1CCN(c2nc(-c3ccccc3)cs2)CC1 [drawing 8]
- Ratio of Increase of Ear Thickness (average value ± standard variation, %) [3]: 37.5 ± 2.1%

Compound: CCN(CC)C(=O)N1CCN(c2nc(-c3ccccc3)cs2)CC1 [drawing 16]
- N: number of living mice, 0 weeks (Sarcoma 180 [2]): 6
- D: average diameter (mm) of tumor, 2 weeks (Sarcoma 180 [2]): 2.6 mm
- N: number of living mice, 2 weeks (Sarcoma 180 [2]): 6
- D: average diameter (mm) of tumor, 4 weeks (Sarcoma 180 [2]): 3.5 mm
- N: number of living mice, 4 weeks (Sarcoma 180 [2]): 6
- D: average diameter (mm) of tumor, 6 weeks (Sarcoma 180 [2]): 6.5 mm
- N: number of living mice, 6 weeks (Sarcoma 180 [2]): 6
- D: average diameter (mm) of tumor, 8 weeks (Sarcoma 180 [2]): 0.6 mm
- N: number of living mice, 8 weeks (Sarcoma 180 [2]): 6
- D: average diameter (mm) of tumor, 10 weeks (Sarcoma 180 [2]): 0 mm
- N: number of living mice, 10 weeks (Sarcoma 180 [2]): 6

Compound: CCN(CC)C(=O)N1CCN(c2nccs2)CC1 [drawing 15]
- D: average diameter (mm) of tumor, 2 weeks (Sarcoma 180 [1]): 8.6 mm
- D: average diameter (mm) of tumor, 4 weeks (Sarcoma 180 [1]): 7.5 mm
- D: average diameter (mm) of tumor, 6 weeks (Sarcoma 180 [1]): 6.7 mm
- D: average diameter (mm) of tumor, 8 weeks (Sarcoma 180 [1]): 7.7 mm
- D: average diameter (mm) of tumor, 10 weeks (Sarcoma 180 [1]): 0 mm
- N: number of living mice, 0 weeks (Sarcoma 180 [1]; 100 mg/Kg oral): 6
- N: number of living mice, 2 weeks (Sarcoma 180 [1]; 100 mg/Kg oral): 6
- N: number of living mice, 4 weeks (Sarcoma 180 [1]; 100 mg/Kg oral): 6
- N: number of living mice, 6 weeks (Sarcoma 180 [1]; 100 mg/Kg oral): 6
- N: number of living mice, 8 weeks (Sarcoma 180 [1]; 100 mg/Kg oral): 6
- N: number of living mice, 10 weeks (Sarcoma 180 [1]; 100 mg/Kg oral): 6

Compound: CCN(CC)C(=O)N1CCN(c2nccs2)CC1 [drawing 9]
- Ratio of Increase of Ear Thickness (average value ± standard variation, %) [3]: 36.6 ± 3.0%

Compound: CCN(CC)C(=O)N1CCN(c2nccs2)CC1 [drawing 13]
- Take-in Ratio (average value, %) (EL-4 leukemic cells): 25.8%

Compound: CCN(CC)C(=O)N1CCN(c2nccs2)CC1 [drawing 11]
- Swelling Ratio (average value ± standard variation, %), 15 days [4]: 60.9 ± 8.0%
- Swelling Ratio (average value ± standard variation, %), 18 days [4]: 59.8 ± 7.8%
- Swelling Ratio (average value ± standard variation, %), 21 days [4]: 50.5 ± 10.0%

Compound: CCN(CC)C(=O)N1CCN(c2nc(-c3ccccc3)cs2)CC1 [drawing 12]
- Take-in Ratio (average value, %) (EL-4 leukemic cells): 21.0%

Compound: c1ccc([C@H]2CN3CCSC3=N2)cc1 [Levamisole hydrochloride, reference compound]
- Ratio of Increase of Ear Thickness (average value ± standard variation, %) [3]: 33.9 ± 3.0%
- Swelling Ratio (average value ± standard variation, %), 15 days [4]: 54.6 ± 11.3%
- Swelling Ratio (average value ± standard variation, %), 18 days [4]: 61.7 ± 9.8%
- Swelling Ratio (average value ± standard variation, %), 21 days [4]: 73.3 ± 14.6%
- Take-in Ratio (average value, %) (EL-4 leukemic cells): 53.3%
- inhibition of take-in of 3H-thymidine by EL-4 cells / macrophage activation (in words) (EL-4 leukemic cells): does not exhibit such action
- inhibition of take-in of 3H-thymidine by EL-4 cells / macrophage activation (in words) (EL-4 leukemic cells; listed as Levamisole): hardly exhibits such action
- D: average diameter (mm) of tumor, 2 weeks (Sarcoma 180 [1]): 8.1 mm
- D: average diameter (mm) of tumor, 4 weeks (Sarcoma 180 [1]): 16.8 mm
- D: average diameter (mm) of tumor, 6 weeks (Sarcoma 180 [1]): 23.1 mm
- D: average diameter (mm) of tumor, 8 weeks (Sarcoma 180 [1]): 27.4 mm
- D: average diameter (mm) of tumor, 10 weeks (Sarcoma 180 [1]): 25.5 mm
- antitumor action (in words) (Sarcoma 180 [1]; 100 mg/Kg oral, repeatedly): no substantial antitumor action was observed
- N: number of living mice, 0 weeks (Sarcoma 180 [1]; 100 mg/Kg oral): 6
- N: number of living mice, 2 weeks (Sarcoma 180 [1]; 100 mg/Kg oral): 6
- N: number of living mice, 4 weeks (Sarcoma 180 [1]; 100 mg/Kg oral): 6
- N: number of living mice, 6 weeks (Sarcoma 180 [1]; 100 mg/Kg oral): 6
- N: number of living mice, 8 weeks (Sarcoma 180 [1]; 100 mg/Kg oral): 6
- N: number of living mice, 10 weeks (Sarcoma 180 [1]; 100 mg/Kg oral): 5
- antitumor activity (in words) (Sarcoma 180 [2]): no substantial antitumor activity
- N: number of living mice, 0 weeks (Sarcoma 180 [2]): 6
- D: average diameter (mm) of tumor, 2 weeks (Sarcoma 180 [2]): 3.6 mm
- N: number of living mice, 2 weeks (Sarcoma 180 [2]): 6
- D: average diameter (mm) of tumor, 4 weeks (Sarcoma 180 [2]): 14.1 mm
- N: number of living mice, 4 weeks (Sarcoma 180 [2]): 6
- D: average diameter (mm) of tumor, 6 weeks (Sarcoma 180 [2]): 22.2 mm
- N: number of living mice, 6 weeks (Sarcoma 180 [2]): 6
- D: average diameter (mm) of tumor, 8 weeks (Sarcoma 180 [2]): 26.8 mm
- N: number of living mice, 8 weeks (Sarcoma 180 [2]): 3
- D: average diameter (mm) of tumor, 10 weeks (Sarcoma 180 [2]): 23.8 mm
- N: number of living mice, 10 weeks (Sarcoma 180 [2]): 2
- estimated LD50 value [5]: 150 to 200 mg/kg

Compound: CCN(CC)C(=O)N1CCN(c2nc(-c3ccccc3)cs2)CC1 [drawing 10]
- Swelling Ratio (average value ± standard variation, %), 15 days [4]: 43.5 ± 13.9%
- Swelling Ratio (average value ± standard variation, %), 18 days [4]: 41.5 ± 12.6%
- Swelling Ratio (average value ± standard variation, %), 21 days [4]: 52.9 ± 11.2%
